# Laboratory results taken from patent US11970453B1, “2-ethoxy-8-(4-fluorobenzylidene)-4-(4-fluorophenyl)-5,6,7,8-tetrahydroquinoline-3-carbonitrile as an antimicrobial compound” (KING FAISAL UNIVERSITY, priority 2023, dated 2024).
# Legend:
# Staphylococcus aureus = assay: Antimicrobial screening, agar dilution method; format: cell-based; details: after 10, 20, 40 and 60 minutes at all dilutions 1:100, 1:200, 1:400, 1:800
# Experimental: (§1) The antibacterial properties of the synthesized compound 2-ethoxy-8-(4-fluorobenzylidene)-4-(4-fluorophenyl)-5,6,7,8-tetrahydroquinoline-3-carbonitrile were studied by the method of agar dilution. Test solutions of each compound was prepared in concentration of 1% using dimethylformamide as a solvent then they are diluted in physiological solution to obtain the final experimental dilutions 1:100, 1:200, 1:400, 1:800. The effects of these substances are compared with furacillin in a controllable study. The testing microbes used were gram positive bacteria Staphylococcus aureus, gram negative bacteria Pseudomonas aeruginosa and Escherichia coli and Candida albicans fungus. The experiments used for this survey were meat-pentonlu agar (EPA) for cultivation of bacteria and Saburo environment for the fungus. Each experiment used 1 mL of test solution on each plate […]. Two drops of emulsified with microbes feel were added. All experimental samples were taken from the agar after 10, 20, 40, 60 minutes in the environment on the basis of Patrk planted. The bacteria were cultivated at a temperature of 37° C. for 1 day and the mushroom was kept in a thermostat for […] at a temperature of 28° C. Then results were checked.
# Escherichia coli = assay: Antimicrobial screening, agar dilution method; format: cell-based; details: after 10, 20, 40 and 60 minutes at all dilutions 1:100, 1:200, 1:400, 1:800
# Experimental: as §1
# Candida albicans = assay: Antimicrobial screening, agar dilution method; format: cell-based; details: after 10, 20, 40 and 60 minutes at all dilutions 1:100, 1:200, 1:400, 1:800
# Experimental: as §1
# Pseudomonas aeruginosa = assay: Antimicrobial screening, agar dilution method; format: cell-based; details: after 10, 20, 40 and 60 minutes at all dilutions 1:100, 1:200, 1:400, 1:800
# Experimental: as §1
structure (smiles),measurement,setting,value
"CCOc1nc2c(c(-c3ccc(F)cc3)c1C#N)CCC/C2=C\c1ccc(F)cc1 [2-ethoxy-8-(4-fluorobenzylidene)-4-(4-fluorophenyl)-5,6,7,8-tetrahydroquinoline-3-carbonitrile]",melting point,,151 to 153 °C
same,inhibition activity,Staphylococcus aureus,highest inhibition activity
same,inhibition activity,Escherichia coli,highest inhibition activity
same,inhibition activity,Candida albicans,highest inhibition activity
same,inhibition activity,Pseudomonas aeruginosa,highest inhibition activity
